Patent US20230407243A1, “GENETIC PLATFORM TO INVESTIGATE THE FUNCTIONS OF BACTERIAL DRUG EFFLUX PUMPS” (priority 2022, published 2023)
Where two headings read alike, the source gives them in different places.

Columns and labels:
Format in all cases: cell-based, Escherichia coli
EKO-35 araC::acrBD408A = experiment: MIC susceptibility profiling, efflux platform; conditions: for Fold change of MICs: EKO-35 araC::acrBD408A compared to EKO-35; for MIC: Escherichia coli, read-out: Minimum Inhibitory Concentration, EKO-35 araC::acrBD408A
How it was run: (§1)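 Overnight LB cultures were grown at 37 °C with aeration, then washed into PBS, pH 7.4, to OD600 ~1.0. A 1/2000 dilution in MHB II was exposed to compound dilution series for 18 h at 37 °C. The MIC was taken from corrected OD600.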

EKO-35 araC::acrB = experiment: MIC susceptibility profiling, efflux platform; conditions: for Fold change of MICs: EKO-35 araC::acrB compared to EKO-35
How it was run: as §1

EKO-35 araC::acrD = experiment: MIC susceptibility profiling, efflux platform; conditions: for Fold change of MICs: EKO-35 araC::acrD compared to EKO-35; for MIC: Escherichia coli, read-out: Minimum Inhibitory Concentration, EKO-35 araC::acrD
How it was run: as §1

EKO-35 araC::acrEF = experiment: MIC susceptibility profiling, efflux platform; conditions: for Fold change of MICs: EKO-35 araC::acrEF compared to EKO-35
How it was run: as §1

EKO-35 araC::emrAB = experiment: MIC susceptibility profiling, efflux platform; conditions: for Fold change of MICs: EKO-35 araC::emrAB compared to EKO-35; for MIC: Escherichia coli, read-out: Minimum Inhibitory Concentration, EKO-35 araC::emrAB
How it was run: as §1

EKO-35 araC::emrKY = experiment: MIC susceptibility profiling, efflux platform; conditions: for Fold change of MICs: EKO-35 araC::emrKY compared to EKO-35; for MIC: Escherichia coli, read-out: Minimum Inhibitory Concentration, EKO-35 araC::emrKY
How it was run: as §1

EKO-35 araC::macAB = experiment: MIC susceptibility profiling, efflux platform; conditions: for Fold change of MICs: EKO-35 araC::macAB compared to EKO-35; for MIC: Escherichia coli, read-out: Minimum Inhibitory Concentration, EKO-35 araC::macAB
How it was run: as §1

EKO-35 araC::mdtBC = experiment: MIC susceptibility profiling, efflux platform; conditions: for Fold change of MICs: EKO-35 araC::mdtBC compared to EKO-35
How it was run: as §1

EKO-35 araC::mdtEF = experiment: MIC susceptibility profiling, efflux platform; conditions: for Fold change of MICs: EKO-35 araC::mdtEF compared to EKO-35; for MIC: Escherichia coli, read-out: Minimum Inhibitory Concentration, EKO-35 araC::mdtEF
How it was run: as §1

[1] = test system: EKO-35 araC::mexCD (MexCD from P. aeruginosa); experiment: MIC susceptibility profiling, efflux platform; conditions: for Fold change of MICs: EKO-35 araC::mexCD compared to EKO-35; for MIC: read-out: Minimum Inhibitory Concentration, EKO-35 araC::mexCD
How it was run: as §1

wild-type (WT) K-12-Pore = experiment: microbe, parasite or virus in culture; conditions: technical duplicate; for MIC: Escherichia coli
How it was run: (§2)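 MIC values come from background-corrected OD600 readings (pre-incubation OD subtracted) after 18 h at 37 °C and 900 rpm in MHB II. Compounds were tested in duplicate as 2-fold dilutions. The inoculum came from 18 h LB cultures adjusted to OD600 ~1.0 and diluted 1/2000, and the pore-bearing strains were vancomycin-checked beforehand.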

ΔtolC-Pore = experiment: microbe, parasite or virus in culture; conditions: for Minimum inhibitory concentration (MIC), Pore ΔtolC: Table 10, with pore; for MIC: Escherichia coli, 18 h, read-out: Minimum inhibitory concentration, ΔtolC-Pore
How it was run: as §2

EKO-35-Pore = experiment: MIC susceptibility profiling, porinated strain; conditions: for Fold changes of MICs: EKO-35-Pore compared to EKO-35-Pore (reference); for MIC: Escherichia coli
How it was run: as §2

EKO-35 araC::acrB Pore = experiment: MIC susceptibility profiling, porinated efflux platform; conditions: for Fold changes of MICs: EKO-35 araC::acr-B Pore compared to EKO-35-Pore
How it was run: as §2

[2] = test system: EKO-35 araC::acrBD408A Pore; experiment: as above; conditions: for Fold changes of MICs: EKO-35 araC::acrBD408A Pore compared to EKO-35-Pore; for MIC: Escherichia coli, read-out: Minimum inhibitory concentration
How it was run: as §2

EKO-35 araC::acrD Pore = experiment: as above; conditions: for Fold changes of MICs: EKO-35 araC::acrD Pore compared to EKO-35-Pore; for MIC: Escherichia coli, read-out: Minimum inhibitory concentration, EKO-35 araC::acrD Pore
How it was run: as §2

EKO-35 araC::acrEF Pore = experiment: as above; conditions: for Fold changes of MICs: EKO-35 araC::acrEF Pore compared to EKO-35-Pore; for MIC: Escherichia coli, read-out: Minimum inhibitory concentration, EKO-35 araC::acrEF Pore
How it was run: as §2

EKO-35 araC::emrAB Pore = experiment: as above; conditions: for Fold changes of MICs: EKO-35 araC::emrAB Pore compared to EKO-35-Pore; for MIC: Escherichia coli, read-out: Minimum inhibitory concentration
How it was run: as §2

[3] = Table 13B, non-porinated, technical duplicate
[4] = Table 13A, non-porinated, technical duplicate
[5] = Table 14A, porinated, technical duplicate
[6] = EKO-35 araC::acrBD408A Pore, technical duplicate
[7] = EKO-35 araC::emrAB Pore, technical duplicate
[8] = Table 10, with pore, read-out: Minimum inhibitory concentration (MIC), Pore K-12
[9] = Table 14A, porinated, read-out: Minimum inhibitory concentration, K-12 (WT)-Pore
[10] = Table 10, with pore, technical duplicate, read-out: Minimum inhibitory concentration (MIC), Pore EKO-35
[11] = Table 14A, porinated, technical duplicate, read-out: Minimum inhibitory concentration, EKO-35-Pore

Row | SMILES | Fold change of MICs (EKO-35 araC::acrBD408A) [fold] | Fold change of MICs (EKO-35 araC::acrB) [fold] | Fold change of MICs (EKO-35 araC::acrD) [fold] | Fold change of MICs (EKO-35 araC::acrEF) [fold] | Fold change of MICs (EKO-35 araC::emrAB) [fold] | Fold change of MICs (EKO-35 araC::emrKY) [fold] | Fold change of MICs (EKO-35 araC::macAB) [fold] | Fold change of MICs (EKO-35 araC::mdtBC) [fold] | Fold change of MICs (EKO-35 araC::mdtEF) [fold] | Fold change of MICs [1] [fold] | Minimum inhibitory concentration (MIC), Pore ΔtolC (ΔtolC-Pore; technical duplicate) [µg/mL] | Fold changes of MICs (EKO-35-Pore) [fold] | Fold changes of MICs (EKO-35 araC::acrB Pore) [fold] | Fold changes of MICs [2] [fold] | Fold changes of MICs (EKO-35 araC::acrD Pore) [fold] | Fold changes of MICs (EKO-35 araC::acrEF Pore) [fold] | Fold changes of MICs (EKO-35 araC::emrAB Pore) [fold] | MIC (EKO-35 araC::acrBD408A; [3]) [µg/mL] | MIC (EKO-35 araC::emrKY; [3]) [µg/mL] | MIC [1, 3] [µg/mL] | further results
1 | Nc1ccccc1SCc1nc(-c2ccc(Cl)cc2)no1 [compound 16] | 1 | 32 | 1 | 32 | 16 | 1 | 1 | 1 | 16 | 16 | 5 | 1 | 32 | 1 | 1 | 16 | 16 | – | – | – | Minimum Inhibitory Concentration, EKO-35 araC::acrBD408A (EKO-35 araC::acrBD408A; [3]): 10 µg/mL; Minimum Inhibitory Concentration, EKO-35 araC::acrB (EKO-35 araC::acrB; [4]): 320 µg/mL; Minimum Inhibitory Concentration, EKO-35 araC::acrD (EKO-35 araC::acrD; [4]): 10 µg/mL; Minimum Inhibitory Concentration, EKO-35 araC::acrEF (EKO-35 araC::acrEF; [4]): 320 µg/mL; Minimum Inhibitory Concentration, EKO-35 araC::emrAB (EKO-35 araC::emrAB; [3]): 160 µg/mL; Minimum Inhibitory Concentration, EKO-35 araC::emrKY (EKO-35 araC::emrKY; [3]): 5 µg/mL; Minimum Inhibitory Concentration, EKO-35 araC::macAB (EKO-35 araC::macAB; [3]): 10 µg/mL; Minimum Inhibitory Concentration, EKO-35 araC::mdtBC (EKO-35 araC::mdtBC; [3]): 5 µg/mL; Minimum Inhibitory Concentration, EKO-35 araC::mdtEF (EKO-35 araC::mdtEF; [4]): 160 µg/mL; Minimum Inhibitory Concentration, EKO-35 araC::mexCD [1, 3]: 160 µg/mL; Minimum inhibitory concentration (MIC), Pore K-12 (wild-type (WT) K-12-Pore; Table 10, with pore): 160 µg/mL; Minimum inhibitory concentration, K-12 (WT)-Pore (wild-type (WT) K-12-Pore; Table 14A, porinated): 160 µg/mL; Minimum inhibitory concentration, ΔtolC-Pore (ΔtolC-Pore; [5]): 5 µg/mL; Minimum inhibitory concentration (MIC), Pore EKO-35 (EKO-35-Pore; Table 10, with pore, technical duplicate): 5 µg/mL; Minimum inhibitory concentration, EKO-35-Pore (EKO-35-Pore; [5]): 5 µg/mL; Minimum inhibitory concentration, EKO-35 araC::acrB Pore (EKO-35 araC::acrB Pore; [5]): 160 µg/mL; Minimum inhibitory concentration [2, 6]: 5 µg/mL; Minimum inhibitory concentration, EKO-35 araC::acrD Pore (EKO-35 araC::acrD Pore; [5]): 5 µg/mL; Minimum inhibitory concentration, EKO-35 araC::acrEF Pore (EKO-35 araC::acrEF Pore; [5]): 80 µg/mL; Minimum inhibitory concentration (EKO-35 araC::emrAB Pore; [7]): 80 µg/mL
2 | CCn1cc(C(=O)O)c(=O)c2ccc(C)nc21 [nalidixic acid] | 1 | 8 | 2 | 4 | 8 | 1 | 1 | 1 | 1 | 2 | 1.25 | 1 | 8 | 1 | 1 | 2 | 8 | 1.25 | 1.25 | 2.5 | MIC (EKO-35 araC::acrB; Escherichia coli, Table 13A, non-porinated, technical duplicate, read-out: Minimum Inhibitory Concentration, EKO-35 araC::acrB): 10 µg/mL; MIC (EKO-35 araC::acrD; [4]): 2.5 µg/mL; MIC (EKO-35 araC::emrAB; [3]): 10 µg/mL; MIC (EKO-35 araC::macAB; [3]): 1.25 µg/mL; MIC (EKO-35 araC::mdtBC; Escherichia coli, Table 13B, non-porinated, technical duplicate, read-out: Minimum Inhibitory Concentration, EKO-35 araC::mdtBC): 1.25 µg/mL; MIC (EKO-35 araC::mdtEF; [4]): 1.25 µg/mL; MIC (wild-type (WT) K-12-Pore; [8]): 5 µg/mL; MIC (wild-type (WT) K-12-Pore; [9]): 5 µg/mL; MIC (ΔtolC-Pore): 1.25 µg/mL; MIC (EKO-35-Pore; [10]): 1.25 µg/mL; MIC (EKO-35-Pore; [11]): 1.25 µg/mL; MIC (EKO-35 araC::acrB Pore; Escherichia coli, Table 14A, porinated, technical duplicate, read-out: Minimum inhibitory concentration, EKO-35 araC::acrB Pore): 10 µg/mL; MIC [2, 6]: 1.25 µg/mL; MIC (EKO-35 araC::acrD Pore; [5]): 1.25 µg/mL; efflux pump-mediated resistance vs EKO-35-Pore (EKO-35 araC::acrEF Pore; AcrEF with the pore): impacted the ability of AcrEF to confer resistance; MIC (EKO-35 araC::acrEF Pore; [5]): 2.5 µg/mL; MIC (EKO-35 araC::emrAB Pore; [7]): 10 µg/mL
3 | NC[C@H]1O[C@H](O[C@H]2[C@H](O)[C@@H](O[C@H]3O[C@H](CO)[C@@H](O)[C@H](N)[C@H]3O)[C@H](N)C[C@@H]2N)[C@H](O)[C@@H](O)[C@@H]1O [kanamycin] | 1 | 1 | 1 | 1 | 1 | 1 | 1 | 1 | 1 | 1 | 1.563 | 1 | 2 | 1 | 1 | 1 | 1 | 1.56 | 1.56 | 1.56 | MIC (wild-type (WT) K-12-Pore; [8]): 3.12 µg/mL; MIC (wild-type (WT) K-12-Pore; [9]): 3.12 µg/mL; MIC (ΔtolC-Pore): 1.56 µg/mL; MIC (EKO-35-Pore; [10]): 1.56 µg/mL; MIC (EKO-35-Pore; [11]): 1.56 µg/mL; MIC [2, 6]: 0.781 µg/mL; MIC (EKO-35 araC::acrD Pore; [5]): 1.56 µg/mL; MIC (EKO-35 araC::acrEF Pore; [5]): 1.56 µg/mL; MIC (EKO-35 araC::emrAB Pore; [7]): 1.56 µg/mL
4 | CO[C@@H]1[C@@H](OC(N)=O)[C@@H](O)[C@H](Oc2ccc3c(O)c(NC(=O)c4ccc(O)c(CC=C(C)C)c4)c(=O)oc3c2C)OC1(C)C [novobiocin] | 1 | 128 | 64 | 128 | 8 | 1 | 1 | 4 | 16 | 8 | 0.391 | 1 | 512 | 1 | 32 | 32 | 8 | 3.12 | 3.12 | 25 | efflux pump-mediated resistance vs EKO-35 (EKO-35 araC::acrD; AcrD): confirmed; MIC (EKO-35 araC::acrD; [4]): 200 µg/mL; MIC (EKO-35 araC::emrAB; [3]): 25 µg/mL; MIC (EKO-35 araC::macAB; [3]): 1.56 µg/mL; efflux pump-mediated resistance vs EKO-35 (EKO-35 araC::mdtBC; MdtBC): conferred resistance; MIC (EKO-35 araC::mdtEF; [4]): 50 µg/mL; MIC (wild-type (WT) K-12-Pore; [8]): 12.5 µg/mL; MIC (wild-type (WT) K-12-Pore; [9]): 12.5 µg/mL; MIC (ΔtolC-Pore): 0.391 µg/mL; MIC (EKO-35-Pore; [10]): 0.781 µg/mL; MIC (EKO-35-Pore; [11]): 0.781 µg/mL; MIC [2, 6]: 0.391 µg/mL; MIC (EKO-35 araC::acrD Pore; [5]): 25 µg/mL; MIC (EKO-35 araC::acrEF Pore; [5]): 25 µg/mL; MIC (EKO-35 araC::emrAB Pore; [7]): 6.25 µg/mL
